Source: ChEMBL document CHEMBL1131758, “5-fluoro-2-methyl-N-[5-(5H-pyrrolo[2,1-c][1,4]benzodiazepine-10(11H)-yl carbonyl)-2-pyridinyl]benzamide (CL-385004) and analogs as orally active arginine vasopressin receptor antagonists” (Bioorg Med Chem Lett, 1999)

Assays:
Rattus norvegicus [1] = assay: Amount of urine output was measured in rat at a dose of 10 mg/kg/po; assay type: ADME, organism-based; conditions: in vivo
Vasopressin V1a receptor [2] = biological target: T1, Vasopressin V1a receptor (Rattus norvegicus, UniProt P30560); assay: Displacement of (Phe-3,4,5 [3H]-) AVP from isolated rat hepatic V1a receptor
T1 sequence (P30560 whole entry): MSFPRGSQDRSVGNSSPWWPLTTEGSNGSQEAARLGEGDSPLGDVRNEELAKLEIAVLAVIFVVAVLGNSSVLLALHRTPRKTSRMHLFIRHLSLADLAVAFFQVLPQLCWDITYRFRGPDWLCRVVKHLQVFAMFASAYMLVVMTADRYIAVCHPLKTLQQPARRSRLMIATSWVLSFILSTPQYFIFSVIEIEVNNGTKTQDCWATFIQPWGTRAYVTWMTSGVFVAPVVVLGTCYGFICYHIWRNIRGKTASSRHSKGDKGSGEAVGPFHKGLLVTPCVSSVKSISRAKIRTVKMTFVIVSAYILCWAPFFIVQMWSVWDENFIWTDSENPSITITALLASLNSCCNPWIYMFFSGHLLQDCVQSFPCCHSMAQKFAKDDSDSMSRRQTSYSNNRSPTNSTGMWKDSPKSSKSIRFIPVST

Vasopressin V2 receptor [3] = biological target: T2, Vasopressin V2 receptor (Rattus norvegicus, UniProt Q00788); assay: Displacement of P[3H]-AVP from isolated rat kidney medullary V2 receptor
T2 sequence (Q00788 whole entry): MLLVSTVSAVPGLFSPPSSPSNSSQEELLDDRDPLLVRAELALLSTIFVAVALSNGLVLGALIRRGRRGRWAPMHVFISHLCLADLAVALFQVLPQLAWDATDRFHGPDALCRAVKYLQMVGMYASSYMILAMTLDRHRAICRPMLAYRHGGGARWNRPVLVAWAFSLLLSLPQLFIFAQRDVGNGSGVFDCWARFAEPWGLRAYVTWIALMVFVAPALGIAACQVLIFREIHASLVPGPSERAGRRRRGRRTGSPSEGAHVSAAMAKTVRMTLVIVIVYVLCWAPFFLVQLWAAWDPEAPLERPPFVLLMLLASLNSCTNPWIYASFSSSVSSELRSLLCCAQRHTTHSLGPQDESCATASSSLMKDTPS

[4] = biological target: Vasopressin V1a receptor (Rattus norvegicus) (UniProt P30560); assay: In vitro inhibition of (Phe-3,4,5 [3H]-) AVP binding towards isolated rat hepatic V1a receptor at a dose of 10 uM
Sequence of Vasopressin V1a receptor (Rattus norvegicus) (P30560 whole entry, looked up): as the sequence (P30560 whole entry) above

Rattus norvegicus [5] = assay: Amount of urine output was measured in rat at a dose of 1 mg/kg/po; assay type: ADME, organism-based; conditions: in vivo
[6] = biological target: Vasopressin V2 receptor (Rattus norvegicus) (UniProt Q00788); assay: In vitro inhibition of (P[3H]-AVP binding towards isolated rat kidney medullary V2 receptor at a dose of 10 uM
Sequence of Vasopressin V2 receptor (Rattus norvegicus) (Q00788 whole entry): as the sequence (Q00788 whole entry) above

Vasopressin V1a receptor [7] = biological target: T1, Vasopressin V1a receptor; assay: In vitro inhibition of (Phe-3,4,5 [3H]-) AVP binding towards isolated rat hepatic Vasopressin V1a receptor
Vasopressin V2 receptor [8] = biological target: T2, Vasopressin V2 receptor; assay: In vitro inhibition of (P[3H]-AVP binding towards isolated rat kidney medullary Vasopre ssin V2 receptor

Structure (SMILES) | Urine volume (Rattus norvegicus [1]) | IC50 (Vasopressin V1a receptor [2]) | IC50 (Vasopressin V2 receptor [3]) | further results
Cc1c(F)cccc1C(=O)Nc1ccc(C(=O)N2Cc3cccn3Cc3ccccc32)cn1 | 34 ml 4hr-1 | 9 nM |  | 
O=C(Nc1ccc(C(=O)N2Cc3cccn3Cc3ccccc32)cn1)c1cc(Br)ccc1Cl | 16.5 ml 4hr-1 | 82 nM | 7.3 nM | 
Cc1ccc(F)cc1C(=O)N(CCCN(C)C)c1ccc(C(=O)N2Cc3cccn3Cc3ccccc32)cn1 |  |  | 290 nM | inhibition [4]: 68%
Nc1ccccc1C(=O)Nc1ccc(C(=O)N2Cc3cccn3Cc3ccccc32)cn1 |  |  | 210 nM | inhibition [4]: 29%
O=C(Nc1ccc(C(=O)N2Cc3cccn3Cc3ccccc32)cn1)c1ccccc1[N+](=O)[O-] |  | 920 nM | 160 nM | 
O=C(Nc1ccc(C(=O)N2Cc3cccn3Cc3ccccc32)cn1)c1c(F)cccc1Cl | 15.8 ml 4hr-1 | 40 nM | 4 nM | 
Cc1ccc(F)cc1C(=O)Nc1ccc(C(=O)N2Cc3cccn3Cc3ccccc32)cn1 |  |  |  | Urine volume (Rattus norvegicus [5]): 20 ml 4hr-1
O=C(Nc1ccc(C(=O)N2Cc3cccn3Cc3ccccc32)cn1)c1cc(F)ccc1F | 11.8 ml 4hr-1 | 310 nM | 240 nM | 
COc1cc(C(=O)Nc2ccc(C(=O)N3Cc4cccn4Cc4ccccc43)cn2)cc(OC)c1OC |  |  |  | inhibition [4]: 51%; inhibition [6]: 41%
O=C(Nc1ccc(C(=O)N2Cc3cccn3Cc3ccccc32)cn1)c1cc(-c2ccccn2)ccc1Cl |  | 260 nM | 480 nM | 
Cc1ccccc1C(=O)Nc1ccc(C(=O)N2Cc3cccn3Cc3ccccc32)cn1 | 5.3 ml 4hr-1 |  |  | IC50 (Vasopressin V1a receptor [7]): 21 nM; IC50 (Vasopressin V2 receptor [8]): 3 nM
O=C(Nc1ccc(C(=O)N2Cc3cccn3Cc3ccccc32)cn1)c1ccc(F)cc1Cl | 30.5 ml 4hr-1 |  |  | 
Cc1ccc(F)cc1C(=O)Nc1ccc(C(=O)N2Cc3cccn3Cc3ccccc32)c(Cl)c1 [LIXIVAPTAN] | 35 ml 4hr-1 | 82 nM | 0.5 nM | 
O=C(Nc1ccc(C(=O)N2Cc3cccn3Cc3ccccc32)cn1)c1ccc(F)cc1F |  |  |  | inhibition [4]: 37%; inhibition [6]: 58%
O=C(Nc1ccc(C(=O)N2Cc3cccn3Cc3ccccc32)cn1)c1ccccc1Cl | 4 ml 4hr-1 |  |  | 
Cc1ccc(F)cc1C(=O)Nc1ccc(C(=O)N2Cc3ccc(CN(C)C)n3Cc3ccccc32)cn1 | 12.5 ml 4hr-1 | 99 nM | 33 nM | 
O=C(Nc1ccc(C(=O)N2Cc3cccn3Cc3ccccc32)cn1)c1ccccc1-c1ccccc1 | 16.5 ml 4hr-1 | 30 nM | 8.3 nM | 
O=C(Nc1ccc(C(=O)N2Cc3cccn3Cc3ccccc32)cn1)c1cc(Cl)ccc1Cl | 19.3 ml 4hr-1 | 100 nM | 4.3 nM | 
